Data as given in patent US20170202939A1, “PERSONALIZED CANCER VACCINES AND METHODS THEREFOR” (Washington University, priority 2014, published 2017).
No end group written: not given here.

Test system: TCRβ clonotypes in CD8+ T cell populations
Assay: TCRβ CDR3 sequencing of neoantigen-specific CD8+ T cells, pre- and post-vaccine
Design: species or system human
Description: Short-term ex-vivo expanded neoantigen-specific T cells were purified to 97-99% purity by cell sorting in a Sony SY3200 BSC (Sony Biotechnology) fitted with a 100 um nozzle, at 30 psi, using 561 nm (585/40) and 642 nm (665/30) lasers and cell pellets were prepared. DNA isolation and TCRβ sequencing was performed by Adaptive Biotechnologies and The Genome Institute at Washington University. Sequencing was performed at either survey (for neoantigen-specific TCRβ reference libraries) or deep (for pre- and post-vaccine CD8+ T cell populations) level (Robins, H., et al., J. Immunol. Methods, 375, 14-19, 2012; Carlson, C. S., et al., Nat. Commun., 4, 2680, 2013). TCRβ V-, D-, J-genes of each CDR3 regions were defined using IMGT (ImMunoGeneTics)/Junctional algorithms and data uploaded into the ImmunoSeq Analyzer (Adaptive Biotechnologies) for analysis. Complete amino acid identity between the reference library and pre- and post-vaccine CD8 samples was required for assigning a TCRβ match. In the reference library, TCRβ clonotypes with frequencies above 0.1% (>100-fold sequencing depth) were set as a threshold for identification of neoantigen-specific TCRβ CDR3 sequences within pre- and post-vaccine CD8+ T cell populations.
Reference T cell receptor-β (TCRβ) complementarity-determining region 3 (CDR3) sequence libraries (shown schematically in FIG. 42, Tables 7-11) were generated from short-term expanded sorted neoantigen-specific T cells (97-99% dextramer-positive), in Tables 7-11, TCRBV, TCRBD and TCRBJ are shown according to consensus nomenclature and CDR3 sequence for each clonotype indicated. Read counts indicates the number of times a given CDR3 sequence was found in the short term ex-vivo expanded neoantigen population. TCRβ clonotypes with frequencies above 0.1% (>100-fold sequencing depth), in reference library, were set as a threshold for identification of neoantigenspecific TCRβ CDR3 sequences within CD8+ T cell populations isolated from PBMC obtained pre- and post-vaccination. […] Frequencies are shown as percent of total reads. […]

Sequence: IILVAVPHV
- TCRβ clonotypes, post-vaccine (CD8+ T cells from PBMC after vaccination): 12 clonotypes
- TCRβ clonotypes, pre-vaccine (CD8+ T cells from PBMC before vaccination): 2 clonotypes
- TCRβ families represented (post-vaccine clonotypes): 8 TCRβ families
